Measured values from patent US6881725B2, “Method for treating pain” (Inspire Pharmaceuticals Inc., priority 2002, dated 2005).

Assays:
rats [1] = settings: Jarvis and Kowaluk, 2001; cited from earlier work
mice [2] = assay: Hotplate assay for acute pain in mice; type: in vivo, mouse
Experimental: The action of P^1-5′-[2′-(O)—,3′-(O)-(benzyl)methylenedioxy]adenosine-P^4-5″-adenosine tetraphosphate, (AP4AmA; AP4A-2′, 3′-mono-acetal with phenylacetaldehyde) on mice in the hotplate model illustrates the analgesic affect of compounds of Formula I. The temperature of the hot plate was set at 55 degrees Celsius. Animals were administered subcutaneously AP4AmA or saline into the dorsal aspect of both hind paws in a volume of 20 microliters. This administration occurred 5 minutes prior to placement on the hotplate. Morphine was administered subcutaneously into the back nape of the mouse's neck in a volume of 10 mL/kg.
The time to hindpaw lick was used as the efficacy endpoint.

mice [3] = assay: Acetic acid-induced abdominal constriction assay for visceral pain in mice; type: in vivo, mouse
Experimental: (§1) These examples illustrate the effects of AP4AmA in two similar models of abdominal constriction; acetic acid-induced and phenylbenzoquinone-induced constrictions in mice. The method employed in FIGS. 2A and […] was a modification of the abdominal constriction test described by Collier et. al (Collier, H, O. et. al, Br. J. Pharmacol. Chemother. 32:295-310 (1968)).
Briefly, in FIG. 2A, each animal, received an intraperitoneal (i.p.) injection of 0.9% acetic acid in a volume of 10 mL/kg. The mouse was placed in an observation chamber shortly after the acetic acid injection and allowed to explore. Testing started five minutes after the acetic acid injection and consisted of 10 minutes of observation during which the number of abdominal constrictions was counted. Abdominal constriction was defined as a lengthwise stretching of the torso with concave arching of the back. AP4AmA and vehicle were administered i.p., in a volume of 10 mL/kg, 3 minutes prior to the administration of acetic acid while Morphine was administered i.p., in a volume of 10 mL/kg, 25 minutes prior to the administration of acetic acid.

mice [4] = assay: Phenylbenzoquinone-induced abdominal constriction assay for visceral pain in mice; type: in vivo, mouse
Experimental: as §1
Briefly, in FIG. 2B, each animal received an i.p. injection of 0.02% phenylbenzoquinone in a volume of 10 mL/kg. The mouse was placed in an observation chamber shortly after the acetic acid injection and allowed to explore. Testing started five minutes after the acetic acid injection and consisted of 5 minutes of observation during which the number of abdominal constrictions was counted. Abdominal constriction was defined as a lengthwise stretching of the torso with concave arching of the back. AP4AmA and vehicle were administered i.p., in a volume of 10 mL/kg, 3 minutes prior to the administration of acetic acid while morphine was administered i.p., in a volume of 10 mL/kg, 30 minutes prior to the administration of acetic acid.

mice [5] = assay: Formalin assay for persistent inflammatory pain (phase II) in mice; type: in vivo, mouse; settings: 5% formalin s.c. right hindpaw; compound s.c. same paw 10 minutes after formalin; 10-30 minutes post formalin; across doses
Experimental: This example illustrates the effect of AP4AmA in mice in phase II of the formalin assay for persistent inflammatory pain. In brief, mice were injected 20 microliters of a 5% full strength formalin solution subcutaneously (s.c.) into the dorsal aspect of the right hindpaw. The mice were returned to the observation cage. The mice were injected 10 microliters s.c. into the same dorsal aspect of the right hindpaw with either vehicle or AP4AmA in varying concentrations 10 minutes after the formalin injection. […]

rats [6] = assay: Spinal Nerve (L5/L6) Ligation model for neuropathic pain (tactile allodynia, von Frey) in rats; type: in vivo; settings: rat
[7] = mouse hotplate, highest dose of AP4AmA

Which antinociceptive effects (rats [1]) does the source give for TNP-ATP here?
The antinociceptive effects was “produce antinociceptive effects in rats”.

Which “time to hindpaw lick, maximal percent effect (MPE %)” value (mice [2]; mouse hotplate 55 degrees Celsius, s.c. into both hind paws 5 minutes before, across doses) does the source give for `Nc1ncnc2c1ncn2[C@@H]1O[C@H](COP(=O)(O)OP(=O)(O)OP(=O)(O)OP(=O)(O)OC[C@H]2O[C@@H](n3cnc4c(N)ncnc43)[C@@H]3OC(Cc4ccccc4)O[C@@H]32)[C@@H](O)[C@H]1O` (stereo partly drawn) [AP4AmA, P^1-5′-[2′-(O)—,3′-(O)-(benzyl)methylenedioxy]adenosine-P^4-5″-adenosine tetraphosphate] here?
Its value is “dose dependent pharmacological effect”.

And the “time to hindpaw lick, maximal percent effect, compared with morphine” value (mice [2]; [7])?
The value was “statistically equivalent to morphine”.

And the “time to hindpaw lick, maximal percent effect, compared with vehicle control” value (mice [2]; [7])?
The value was “statistically significant from vehicle control”.

What about the “number of abdominal constrictions” value (mice [3]; 0.9% acetic acid i.p., compound i.p. 3 minutes prior, across doses) of the same compound?
Its value is “dose dependent pharmacological effect”.

What about the “number of abdominal constrictions, compared with morphine” value (mice [3]; acetic acid model, 100 mg/kg AP4AmA i.p.) of the same compound?
The value was “not statistically different from morphine”.

What about the “number of abdominal constrictions” value (mice [4]; 0.02% phenylbenzoquinone i.p., compound i.p. 3 minutes prior, across doses) of the same compound?
Its value is “dose dependent pharmacological effect”.

What about the “number of abdominal constrictions, compared with morphine” value (mice [4]; phenylbenzoquinone model, 30 mg/kg AP4AmA i.p.) of the same compound?
Its value is “not statistically different from morphine”.

And the “duration of time spent licking the inflamed hind paw” value (mice [5])?
Its value is “dose dependent pharmacological effect”.

And the “gram force required to induce withdrawal of the allodynic hindpaw, compared with morphine” value (rats [6]; von Frey filaments)?
Its value is “not statistically different from morphine”.

And the “gram force required to induce withdrawal of the allodynic hindpaw, compared with vehicle control” value (rats [6]; von Frey filaments)?
The value was “significantly different from vehicle control”.

What about the reversal of allodynia (rats [6]; 0.03 mg/mL, 50 microliters subplantar, 60 minutes prior to testing, versus morphine i.p. 16 mg/kg) of the same compound?
The reversal of allodynia was “can reverse the allodynia in the rat to an equivalent level as morphine”.
